According to patent US10774071B2, “PD-1/PD-L1 inhibitors” (Gilead Sciences, Inc., priority 2018, dated 2020):

Tests used:
[1] = target: PD-1/PD-L1 (Homo sapiens (Human), UniProt Q9NZQ7); test: PD-1/PD-L1 biochemical protein-protein interaction assay (ALPHA); type: binding; settings: 0.3 nM His tagged PD-L1, 2.5 nM biotinylated Fc-PD-1, Table 3B, read-out: IC50 PD-L1-PD1
[2] = target: PD-L1 (Homo sapiens (Human), UniProt Q9NZQ7); test: PD-L1/PD-L1 dimerization biochemical protein-protein interaction assay (ALPHA); type: binding; settings: 0.5 nM His tagged PD-L1 and 0.5 nM FLAG tagged PD-L1, Table 4B, read-out: AC50 PDL1 Dimer 1 nM
PD-L1, sequence (Q9NZQ7 19-238): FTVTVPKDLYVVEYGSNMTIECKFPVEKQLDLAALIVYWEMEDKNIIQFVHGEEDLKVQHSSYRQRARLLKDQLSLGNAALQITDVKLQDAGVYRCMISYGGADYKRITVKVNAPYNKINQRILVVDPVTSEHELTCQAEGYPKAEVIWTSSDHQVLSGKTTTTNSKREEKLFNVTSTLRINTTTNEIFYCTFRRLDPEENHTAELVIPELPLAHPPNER
PD-L1, sequence (Q9NZQ7 19-238): as above

PD-1/PD-L1, sequence (Q9NZQ7 19-238): as above

Compound: CNC(=O)C1CCN(Cc2cc(Cl)c(O[C@H]3CCc4c(-c5cccc(-c6ccc(CNC[C@@H]7CCC(=O)N7)c(OC)n6)c5Cl)cccc43)nc2OC)C1 (stereo partly drawn) [B-88]
- IC50 [1]: 0.064 nM
- AC50 [2]: 26.4 nM

Compound: CNC(=O)CCNCc1ccc(-c2cccc(-c3cccc4c3CC[C@@H]4Oc3nc(OC)c(CNCCC(=O)NC)cc3Cl)c2Cl)nc1OC [B-89]
- IC50 [1]: 0.387 nM
- AC50 [2]: 85 nM

Compound: CNC(=O)CCNCc1cc(Cl)c(O[C@H]2CCc3c(-c4cccc(-c5ccc(CNC[C@@H]6CCC(=O)N6)c(OC)n5)c4Cl)cccc32)nc1OC [B-90]
- IC50 [1]: 0.111 nM
- AC50 [2]: 18.7 nM

Compound: COc1nc(O[C@H]2CCc3c(-c4cccc(-c5cnc([C@H](C)NC[C@@H]6CCC(=O)N6)c(OC)n5)c4Cl)cccc32)c(Cl)cc1CN1CC[C@@H](C(=O)O)C1 [B-91]
- IC50 [1]: 0.064 nM
- AC50 [2]: 33.8 nM

Compound: COc1nc(-c2cccc(-c3cccc4c3CC[C@@H]4Oc3nc(OC)c(CN4C[C@@H]5CCC[C@]5(C(=O)O)C4)cc3Cl)c2Cl)ccc1CNC[C@@H]1CCC(=O)N1 [B-92]
- IC50 [1]: 0.064 nM
- AC50 [2]: 54.5 nM

Compound: COc1nc(-c2cccc(-c3cccc4c3CC[C@@H]4Oc3nc(OC)c(CN4C[C@@H]5CC[C@]5(C(=O)O)C4)cc3Cl)c2Cl)ccc1CNC[C@@H]1CCC(=O)N1 [B-93]
- IC50 [1]: 0.064 nM
- AC50 [2]: 55 nM

Compound: COC(=O)[C@H]1[C@@H]2CN(Cc3cc(Cl)c(O[C@H]4CCc5c(-c6cccc(-c7ccc(CNC[C@@H]8CCC(=O)N8)c(OC)n7)c6Cl)cccc54)nc3OC)C[C@@H]21 [B-94]
- IC50 [1]: 0.068 nM
- AC50 [2]: 103 nM

Compound: COc1nc(-c2cccc(-c3cccc4c3CC[C@@H]4Oc3nc(OC)c(CN4C[C@@H]5C[C@]5(C(=O)O)C4)cc3Cl)c2Cl)ccc1CNC[C@@H]1CCC(=O)N1 [B-95]
- IC50 [1]: 0.064 nM
- AC50 [2]: 36.2 nM

Compound: COc1nc(O[C@H]2CCc3c(-c4cccc(-c5cnc(CNC[C@@H]6CCC(=O)N6)cn5)c4Cl)cccc32)c(Cl)cc1CN1CC(C(=O)O)C1 [B-96]
- IC50 [1]: 0.064 nM
- AC50 [2]: 48.7 nM

Compound: COc1nc(O[C@H]2CCc3c(-c4cccc(-c5cnc(CNC[C@@H]6CCC(=O)N6)cn5)c4Cl)cccc32)c(Cl)cc1CN1CC[C@@H](C(=O)O)C1 [B-97]
- IC50 [1]: 0.064 nM
- AC50 [2]: 66.4 nM

Compound: COc1nc(-c2cccc(-c3cccc4c3CC[C@@H]4Oc3nc(OC)c(CN4CC5CCC4C(C(=O)O)C5)cc3Cl)c2Cl)ccc1CNC[C@@H]1CCC(=O)N1 (stereo partly drawn) [B-98]
- IC50 [1]: 0.111 nM
- AC50 [2]: 54.3 nM

Compound: COc1nc(-c2cccc(-c3cccc4c3CC[C@@H]4Oc3nc(OC)c(CN4CC5CC5(C(=O)O)C4)cc3Cl)c2Cl)ccc1CNC[C@@H]1CCC(=O)N1 (stereo partly drawn) [B-99]
- IC50 [1]: 0.086 nM
- AC50 [2]: 67.9 nM

Compound: CNC(=O)C1CN(Cc2cc(Cl)c(O[C@H]3CCc4c(-c5cccc(-c6ccc(CNC[C@@H]7CCC(=O)N7)c(OC)n6)c5Cl)cccc43)nc2OC)C1 [B-101]
- IC50 [1]: 0.201 nM
- AC50 [2]: 64.8 nM

Compound: COc1nc(-c2cccc(-c3cccc4c3CC[C@@H]4Oc3nc(OC)c(CN4CC(C)(O)C4)cc3Cl)c2Cl)ccc1CNC[C@@H]1CCC(=O)N1 [B-102]
- IC50 [1]: 0.146 nM
- AC50 [2]: 80.6 nM

Compound: COc1nc(-c2cccc(-c3cccc4c3SC[C@@H]4Oc3nc(OC)c(CNC[C@@H]4CCC(=O)N4)cc3Cl)c2Cl)ccc1CNC[C@@H]1CCC(=O)N1 [B-103]
- IC50 [1]: 0.234 nM
- AC50 [2]: 58.5 nM

Compound: COc1nc(-c2cccc(-c3cccc4c3CC[C@@H]4Oc3nc(OC)c(CN4C[C@H](C(=O)O)[C@@H](C)C4)cc3Cl)c2Cl)ccc1CNC[C@@H]1CCC(=O)N1 [B-106]
- IC50 [1]: 0.064 nM
- AC50 [2]: 41.3 nM

Compound: COc1nc(-c2cccc(-c3cccc4c3CC[C@@H]4Oc3nc(OC)c(CN4C[C@@H](C)[C@H](C(=O)O)C4)cc3Cl)c2Cl)ccc1CNC[C@@H]1CCC(=O)N1 [B-107]
- IC50 [1]: 0.064 nM
- AC50 [2]: 20.1 nM

Compound: COc1nc(-c2cccc(-c3cccc4c3CC[C@@H]4Oc3nc(OC)c(CN4CC[C@H](C(=O)O)C4)cc3Cl)c2Cl)ccc1CNC[C@@H]1CCC(=O)N1 [B-114]
- IC50 [1]: 0.064 nM
- AC50 [2]: 20.7 nM

Compound: COc1nc(-c2cccc(-c3cccc4c3CC[C@@H]4Oc3nc(OC)c(CN4CCC(C(=O)O)CC4)cc3Cl)c2Cl)ccc1CNC[C@@H]1CCC(=O)N1 [B-115]
- IC50 [1]: 0.064 nM
- AC50 [2]: 26.3 nM

Compound: COc1nc(O[C@H]2CCc3c(-c4cccc(-c5ccc(CNC[C@@H]6CCC(=O)N6)c(Cl)c5)c4Cl)cccc32)c(Cl)cc1CNC1(C(=O)O)CC1 [B-116]
- IC50 [1]: 0.064 nM
- AC50 [2]: 35.5 nM

Compound: COc1cc(-c2cccc(-c3cccc4c3CC[C@@H]4Oc3nc(OC)c(CN4CC[C@@H]5C[C@@]54C(=O)O)cc3C(F)(F)F)c2Cl)ccc1CNC[C@@H]1CCC(=O)N1 [B-117]
- IC50 [1]: 0.064 nM
- AC50 [2]: 0.813 nM

Compound: COc1cc(-c2cccc(-c3cccc4c3CC[C@@H]4Oc3nc(OC)c(CN4CCC[C@@]4(C)C(=O)O)cc3C(F)(F)F)c2Cl)ccc1CNC[C@@H]1CCC(=O)N1 [B-118]
- IC50 [1]: 0.064 nM
- AC50 [2]: 0.988 nM

Compound: COc1nc(-c2cccc(-c3cccc4c3CC[C@@H]4Oc3nc(OC)c(C(C)N4CC(C(=O)O)C4)cc3C(F)(F)F)c2Cl)ccc1CNC[C@@H]1CCC(=O)N1 (stereo partly drawn) [B-119]
- IC50 [1]: 0.064 nM
- AC50 [2]: 24.5 nM

Compound: COc1nc(-c2cccc(-c3cccc4c3CC[C@@H]4Oc3nc(OC)c(C(C)NCCC(=O)O)cc3C(F)(F)F)c2Cl)ccc1CNC[C@@H]1CCC(=O)N1 (stereo partly drawn) [B-120]
- IC50 [1]: 0.064 nM
- AC50 [2]: 18.2 nM
